Earlier results on one molecule are cited in patent US20130251663A1, “Tissue Preservation Fluid” (GREENBLENDZ, INC., priority 2012, published 2013).

In this data set the test system is eyes nose and throat. Conditions: airborne exposure.

On to `C=O` [formaldehyde], for which the “Airborne concentration immediately dangerous to life and health” value is 100 ppm; the “Airborne concentration that can cause irritation of the eyes nose and throat” value is on record as “above 0.1 ppm”.
